The values that follow are results of earlier work, collected in patent publication US20140141213A1, “PHOTOCURABLE INK COMPOSITION, INK JET RECORDING METHOD, RECORDED MATTER, INK SET, INK CARTRIDGE, AND RECORDING APPARATUS” (Seiko Epson Corporation, priority 2009, published 2014).

The conditions of this data set: primary irritation index.

Consider Polyethylene glycol #400 diacrylate, for which the P.I.I is recorded as 0.4.

As for `C=CC(=O)OCC1COC(C)(CC)O1` (centres unmarked) [(2-Methyl-2-ethyl-1,3-dioxolane-4-yl)methyl acrylate], the P.I.I was 1.3.

Turning to `C=CC(=O)OCC1COC(C)(CC(C)C)O1` (centres unmarked) [(2-Methyl-2-isobutyl-1,3-dioxolane-4-yl)methyl acrylate], the P.I.I is recorded as 1.0.

Regarding “Trimethylolpropane PO-modified triacrylate”, the P.I.I is reported as 0.1.

`C=CC(=O)O[C@@H]1C[C@H]2CC[C@]1(C)C2(C)C` [Isobornyl acrylate]: the P.I.I is listed as 0.6.

As for `C=CC(=O)OCCOCCOC` [Methoxy diethylene glycol monoacrylate], the P.I.I is recorded as 0.7.

For the molecule `C=CC(=O)OCCOc1ccccc1` [Phenoxyethyl acrylate], the P.I.I is listed as 1.7.

In the case of `C=C(C)C(=O)OCC(CC)(COC(=O)C(=C)C)COC(=O)C(=C)C` [Trimethylolpropane trimethacrylate], the P.I.I is given as 0.8.

`C=C(C)C(=O)OCC(O)COC(=O)C(=C)C` [2-Hydroxy-1,3-dimethacryloxypropane]: the P.I.I was 0.6.

As for `C=C(C)C(=O)OCCOCCOCCOCCOC(=O)C(=C)C` [Tetraethylene glycol dimethacrylate], the P.I.I is 0.5.

In the case of `C=CC(=O)OCCCCCCCCCOC(=O)C=C` [1,9-Nonanediol diacrylate], the P.I.I is 2.0.

Trimethylolpropane-modified triacrylate: the P.I.I is 1.5.

For `C=C(C)C(=O)OCC(C)(C)COC(=O)C(=C)C` [Neopentyl glycol dimethacrylate], the P.I.I was 0.0.

With `C=C(C)C(=O)OCCOCCOC(=O)C(=C)C` [Diethylene glycol dimethacrylate], the P.I.I was 0.5.

`C=C(C)C(=O)OCCOC(=O)C(=C)C` [Ethylene glycol dimethacrylate]: the P.I.I is 0.6.

`C=C(C)C(=O)OCCCCCCOC(=O)C(=C)C` [1,6-Hexanediol dimethacrylate]: the P.I.I was 0.5.

In the case of `C=CC(=O)OCC(C)OCC(C)OCC(C)OC(=O)C=C` (centres unmarked) [Tripropylene glycol diacrylate], the P.I.I was 1.6.
